Experimental data taken from PubChem BioAssay AID2060502 (Molecular Pharmacology Branch, DTP, NCI, 2025).
pIC50: −log10 of the molar value.

Test system: 885724-159-R-J1-PDC complex spheroid viability
Test: Anticancer human tumor 885724-159-R-J1-PDC patient-derived pancreatic adenocarcinoma cell line growth inhibition [GQUAD]
Details: for pIC50: curve of first compound; for viability, T/C: stronger effect = lower value
Description: DNA G-quadruplex Stabilizer Agents in Combinations in Complex Spheroids
A high-throughput screen of multi-cell type tumor spheroids was designed to identify active combinations of DNA G-quadruplex stabilizer agents and targeted small molecules. Complex spheroids include a stromal component modeled by human endothelial cells (HUVEC) and fibroblasts modeled by human mesenchymal stem cells (MSCs). The concentration ranges selected for each drug and investigational agent were based upon clinically achievable concentrations if the clinical Cmax of the agent was known.
Compounds. The drugs and investigational agents: pidnarulex (CX-5461; NSC782164), APTO-253 (NSC789042), BRACO-19 (NSC847499), peposertib (NSC802822), ceralasertib (NSC780249), elimusertib (NSC800525), camonsertib (NSC841442), AZD-1390 (NSC803789), olaparib (NSC753686), talazoparib (NSC767125), ART-558 (NSC835418), sotorasib (NSC818433), MRTX-1133 (NSC836407), SN-38 (NSC673596), topotecan (NSC609699), etoposide (NSC141540), doxorubicin (NSC123127), gemcitabine (NSC613327), 5-fluorouracil (NSC19893), paclitaxel (NSC125973), vemurafenib (NSC761431), panobinostat (NSC761190), R-306465 (JNJ-16241199; NSC773264), adavosertib (NSC754352), TP-3654 (NSC805149), carboplatin (NSC241240), KSQ-4279 (NSC840948), and staurosporine (NSC755774) were obtained from the National Cancer Institute (NCI) Developmental Therapeutics Program Chemical Repository (34). The FDA-approved anticancer drug set is available from the NCI Developmental Therapeutics Program. […] The stock solutions were prepared in dimethyl sulfoxide (DMSO, Sigma-Aldrich, St. Louis, MO, cat. D2650) at 800-fold the tested concentration and stored at -70 degrees C prior to their use. All drugs and investigational agents were tested over a range starting from a high concentration at or near the clinical Cmax and decreasing in half-log increments. If the clinical Cmax for an agent had not been determined, the highest concentration tested was 10 microM.
2.3 Cell Culture. All cells were maintained in an incubator at 37 degrees C and 5% CO2 with 95% humidity. The PDC lines were cultured according to standard operating procedures established by the NCI PDMR. All PDCs were thawed and cultured in Matrigel-coated flasks prepared with a working solution of 1X Ham's F-12 nutrient mix, without supplementation (Invitrogen, cat. 11765054), 100 U/mL penicillin-streptomycin (Invitrogen, cat. 15140122), and 2.5% Matrigel (Corning Inc., cat. 354248) for the first three passages. The 857933-349-R-J2-PDC line was cultured in 6C/Colon 1B media, which includes advanced DMEM/F-12 (Thermo Fisher Scientific, cat. 12634028), 10 mM HEPES (Thermo Fisher Scientific, cat. 15630080), 1X GlutaMAX supplement (Thermo Fisher Scientific, cat. 35050061), 0.1 mg/mL primocin (InvivoGen, cat. ant-pm-2), 10% defined fetal bovine serum, heat inactivated (HyClone Laboratories Inc., cat. SH30070.03HI), 50% L-WRN conditioned media (ATCC, cat. CRL-3276), 1.25 mM N-Acetyl-L-cysteine (Sigma-Aldrich, cat. A9165), 10 mM nicotinamide (Sigma-Aldrich, cat. N0636), 1X B-27 supplement (Thermo Fisher Scientific, cat. 17504044), 1X N-2 supplement (Thermo Fisher Scientific, cat. 17502048), 10 microM Y-27632 dihydrochloride (Tocris Bioscience, cat. 1254), and 50 ng/mL human EGF recombinant protein (Thermo Fisher Scientific, cat. PHG0311). The 485176-168-R4-J1-PDC line was cultured in Panc media, which includes all 6C/Colon 1B media components plus 100 ng/mL human FGF-10 (Thermo Fisher Scientific, cat. 100-26), 500 nM SB-431542 (Selleckchem, cat. S1067), and gastrin (Tocris, cat. 3006).
[…]
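Also: spheroids exposed to agents for seven days before readout.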
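For viability, T/C in this document: percent of vehicle control viability where 100% = DMSO wells.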

**Q.** With CC1COCCN1c1cc(C2(S(C)(=N)=O)CC2)nc(-c2ccnc3[nH]ccc23)n1 (configuration not stated) + Cc1[nH]c2ccc(F)cc2c1-c1nc2c3cccnc3c3ncccc3c2[nH]1 as the compound, how does the pIC50 (second compound 0.0316 µM) read?
**A.** < 5.00

**Q.** And the pIC50 (second compound 0.1 µM)?
**A.** < 5.00

**Q.** And the pIC50 (second compound 0.316 µM)?
**A.** < 5.00

**Q.** And the pIC50 (second compound 1 µM)?
**A.** < 5.00

**Q.** What about the pIC50 (second compound 3.16 µM) of the same compound?
**A.** 6.86

**Q.** And the pIC50 (second compound 10 µM)?
**A.** < 5.00

**Q.** And the viability, T/C (second compound 0.0316 µM, first compound 0.0316 µM)?
**A.** 105%

**Q.** And the viability, T/C (second compound 0.0316 µM, first compound 0.1 µM)?
**A.** 113%

**Q.** And the viability, T/C (second compound 0.0316 µM, first compound 0.316 µM)?
**A.** 103%

**Q.** What about the viability, T/C (second compound 0.0316 µM, first compound 1 µM) of the same compound?
**A.** 90.3%

**Q.** What about the viability, T/C (second compound 0.0316 µM, first compound 3.16 µM) of the same compound?
**A.** 95.7%

**Q.** And the viability, T/C (second compound 0.0316 µM, first compound 10 µM)?
**A.** 76.2%

**Q.** What about the viability, T/C (second compound 0.1 µM, first compound 0.0316 µM) of the same compound?
**A.** 110%

**Q.** What about the viability, T/C (second compound 0.1 µM, first compound 0.1 µM) of the same compound?
**A.** 103%

**Q.** What about the viability, T/C (second compound 0.1 µM, first compound 0.316 µM) of the same compound?
**A.** 95.7%

**Q.** And the viability, T/C (second compound 0.1 µM, first compound 1 µM)?
**A.** 103%

**Q.** And the viability, T/C (second compound 0.1 µM, first compound 3.16 µM)?
**A.** 77.2%

**Q.** What about the viability, T/C (second compound 0.1 µM, first compound 10 µM) of the same compound?
**A.** 68.1%

**Q.** And the viability, T/C (second compound 0.316 µM, first compound 0.0316 µM)?
**A.** 90.3%

**Q.** What about the viability, T/C (second compound 0.316 µM, first compound 0.1 µM) of the same compound?
**A.** 99.9%

**Q.** What about the viability, T/C (second compound 0.316 µM, first compound 0.316 µM) of the same compound?
**A.** 93.6%

**Q.** And the viability, T/C (second compound 0.316 µM, first compound 1 µM)?
**A.** 93.6%

**Q.** And the viability, T/C (second compound 0.316 µM, first compound 3.16 µM)?
**A.** 92.4%

**Q.** And the viability, T/C (second compound 0.316 µM, first compound 10 µM)?
**A.** 67.6%

**Q.** And the viability, T/C (second compound 1 µM, first compound 0.0316 µM)?
**A.** 81.8%

**Q.** What about the viability, T/C (second compound 1 µM, first compound 0.1 µM) of the same compound?
**A.** 72.5%

**Q.** And the viability, T/C (second compound 1 µM, first compound 0.316 µM)?
**A.** 78.8%

**Q.** What about the viability, T/C (second compound 1 µM, first compound 1 µM) of the same compound?
**A.** 68.7%

**Q.** And the viability, T/C (second compound 1 µM, first compound 3.16 µM)?
**A.** 66.6%

**Q.** What about the viability, T/C (second compound 1 µM, first compound 10 µM) of the same compound?
**A.** 64.1%

**Q.** And the viability, T/C (second compound 3.16 µM, first compound 0.0316 µM)?
**A.** 62.5%

**Q.** What about the viability, T/C (second compound 3.16 µM, first compound 0.1 µM) of the same compound?
**A.** 43.8%

**Q.** And the viability, T/C (second compound 3.16 µM, first compound 0.316 µM)?
**A.** 56%

**Q.** What about the viability, T/C (second compound 3.16 µM, first compound 1 µM) of the same compound?
**A.** 36.3%

**Q.** And the viability, T/C (second compound 3.16 µM, first compound 3.16 µM)?
**A.** 48.3%

**Q.** And the viability, T/C (second compound 3.16 µM, first compound 10 µM)?
**A.** 36%

**Q.** And the viability, T/C (second compound 10 µM, first compound 0.0316 µM)?
**A.** 68.1%

**Q.** What about the viability, T/C (second compound 10 µM, first compound 0.1 µM) of the same compound?
**A.** 77.2%

**Q.** And the viability, T/C (second compound 10 µM, first compound 0.316 µM)?
**A.** 67.5%

**Q.** What about the viability, T/C (second compound 10 µM, first compound 1 µM) of the same compound?
**A.** 74.3%

**Q.** What about the viability, T/C (second compound 10 µM, first compound 3.16 µM) of the same compound?
**A.** 61.1%

**Q.** What about the viability, T/C (second compound 10 µM, first compound 10 µM) of the same compound?
**A.** 54.7%
